Test results taken from the supplement of paper PMC11208160.

Experiment: recombinant UMI read abundance after kanamycin selection (control-corrected) (log10(CPM+1)); higher = more efficient recombination; extreme values may be limits of the assay; sequences stand for … in AGTGCAGAGAAAATCGGCCAGTTTTCTCTGCCTGCAGTCCGCATGCCGTGGGACCCCTTGGGTTCTAACCTGTTGCCTAGATTTATGCAGCGGACTGCCTTTCTCCCAAAGTGATAAACCGG…AGGTTGGTTTCACT; site = the 11-nt donor
Outline: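 Under IPTG (0.07 mM) plus kanamycin, or without selection, Escherichia coli carrying a UMI-tagged donor and donor-binding-loop pair library and a target plasmid for the IS621 bridge recombinase were plated in two replicates. Recombinant UMIs were PCR-amplified across the donor–target junction and sequenced. Counts were converted to CPM, averaged over replicates, scaled by control-derived factors and reported as log10(CPM+1).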
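Further: IS621 bridge recombinase in Escherichia coli cells against a fixed T5 target plasmid.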

## ATCTAGACATGGACCGGTTTTCCCGGTAATCCGTATTTGGG (site ACCTAGACTCC)
  recombinant UMI read abundance (log10): 0.00659

## ATCTAGACATGGACCGGTTTTCCCGGTAATCCGTATTTGGG (site AGCTAGACTCC)
  recombinant UMI read abundance (log10): 0.313

## ATCTAGACATGGACCGGTTTTCCCGGTAATCCGTATTTGGG (site ATCTAGACTCC)
  recombinant UMI read abundance (log10): 0.0102

## ATCTATACATGGACCGGTTTTCCCGGTAATCCGTATTTGAT (site ATCTATACTAT)
  recombinant UMI read abundance (log10): 1.02

## ATCTATACATGGACCGGTTTTCCCGGTAATCCGTATTTGAT (site ATCTATACTCT)
  recombinant UMI read abundance (log10): 0.147

## ATCTATACATGGACCGGTTTTCCCGGTAATCCGTATTTGAT (site ATCTATACTGT)
  recombinant UMI read abundance (log10): 0

## ATCTATACATGGACCGGTTTTCCCGGTAATCCGTATTTGAT (site ATCTATACTTT)
  recombinant UMI read abundance (log10): 0.00795

## ATCTATCCATGGACCGGTTTTCCCGGTAATCCGTATTTGCT (site ATCTATCCTAG)
  recombinant UMI read abundance (log10): 1.24

## ATCTCTGCATGGACCGGTTTTCCCGGTAATCCGTATTTGCT (site ATCTCTGCTAG)
  recombinant UMI read abundance (log10): 1.73

## ATCTGCCCATGGACCGGTTTTCCCGGTAATCCGTATTTGCT (site ATCTGCCCTAG)
  recombinant UMI read abundance (log10): 0.548

## ATCTGCTCATGGACCGGTTTTCCCGGTAATCCGTATTTGGA (site ATCTGCTCTTC)
  recombinant UMI read abundance (log10): 1.49

## ATCTGGGCATGGACCGGTTTTCCCGGTAATCCGTATTTGGT (site ATCTGGGCTAC)
  recombinant UMI read abundance (log10): 0.162

## ATCTTGGCATGGACCGGTTTTCCCGGTAATCCGTATTTGGG (site ATCTTGGCTCC)
  recombinant UMI read abundance (log10): 0.448

## ATGAAGACATGGACCGGTTTTCCCGGTAATCCGTATTTGCA (site AAGAAGACTTG)
  recombinant UMI read abundance (log10): 1.29

## ATGAAGACATGGACCGGTTTTCCCGGTAATCCGTATTTGCA (site ACGAAGACTTG)
  recombinant UMI read abundance (log10): 2.34

## ATGAAGACATGGACCGGTTTTCCCGGTAATCCGTATTTGCA (site AGGAAGACTTG)
  recombinant UMI read abundance (log10): 1.02

## ATGAAGACATGGACCGGTTTTCCCGGTAATCCGTATTTGCA (site ATGAAGACTTG)
  recombinant UMI read abundance (log10): 2.64

## ATGAAGACATGGACCGGTTTTCCCGGTAATCCGTATTTGGA (site AGGAAGACTTG)
  recombinant UMI read abundance (log10): 0

## ATGAAGACATGGACCGGTTTTCCCGGTAATCCGTATTTGGA (site ATGAAGACTTC)
  recombinant UMI read abundance (log10): 1.52

## ATGACAACATGGACCGGTTTTCCCGGTAATCCGTATTTGGA (site ATGACAACTTC)
  recombinant UMI read abundance (log10): 1.22

## ATGACGCCATGGACCGGTTTTCCCGGTAATCCGTATTTGGA (site ATGACGCCTTC)
  recombinant UMI read abundance (log10): 0.0104

## ATGAGCACATGGACCGGTTTTCCCGGTAATCCGTATTTGGC (site ATGAGCACTGC)
  recombinant UMI read abundance (log10): 2.98

## ATGATAACATGGACCGGTTTTCCCGGTAATCCGTATTTGCC (site ATGATAACTGG)
  recombinant UMI read abundance (log10): 3.06

## ATGCAGACATGGACCGGTTTTCCCGGTAATCCGTATTTGTC (site ATGCAGACTGA)
  recombinant UMI read abundance (log10): 2.43

## ATGCCGCCATGGACCGGTTTTCCCGGTAATCCGTATTTGGG (site ATGCCGCCTCC)
  recombinant UMI read abundance (log10): 0.0227

## ATGCGTTCATGGACCGGTTTTCCCGGTAATCCGTATTTGAC (site ATGCGTTCTGT)
  recombinant UMI read abundance (log10): 2.37

## ATGCGTTCATGGACCGGTTTTCCCGGTAATCCGTATTTGCG (site ATGCGTTCTCG)
  recombinant UMI read abundance (log10): 1.96

## ATGCTACCATGGACCGGTTTTCCCGGTAATCCGTATTTGCT (site ATGCTACCTAG)
  recombinant UMI read abundance (log10): 0

## ATGCTACCATGGACCGGTTTTCCCGGTAATCCGTATTTGCT (site CTGCTACCTAG)
  recombinant UMI read abundance (log10): 0

## ATGCTACCATGGACCGGTTTTCCCGGTAATCCGTATTTGCT (site GTGCTACCTAG)
  recombinant UMI read abundance (log10): 0

## ATGCTACCATGGACCGGTTTTCCCGGTAATCCGTATTTGCT (site TTGCTACCTAG)
  recombinant UMI read abundance (log10): 0

## ATGGCAACATGGACCGGTTTTCCCGGTAATCCGTATTTGTG (site ATGGCAACTCA)
  recombinant UMI read abundance (log10): 0.02

## ATGGGCCCATGGACCGGTTTTCCCGGTAATCCGTATTTGTC (site ATGGGCCCTGA)
  recombinant UMI read abundance (log10): 0.504

## ATGGTCGCATGGACCGGTTTTCCCGGTAATCCGTATTTGTT (site ATGGTCGCTAA)
  recombinant UMI read abundance (log10): 1.29

## ATGGTGTCATGGACCGGTTTTCCCGGTAATCCGTATTTGCT (site ATGGTGTCTAG)
  recombinant UMI read abundance (log10): 3.4

## ATGTAGGCATGGACCGGTTTTCCCGGTAATCCGTATTTGGA (site ATGTAGGCTAC)
  recombinant UMI read abundance (log10): 0.451

## ATGTAGGCATGGACCGGTTTTCCCGGTAATCCGTATTTGGA (site ATGTAGGCTCC)
  recombinant UMI read abundance (log10): 0.209

## ATGTAGGCATGGACCGGTTTTCCCGGTAATCCGTATTTGGA (site ATGTAGGCTGC)
  recombinant UMI read abundance (log10): 1.58

## ATGTAGGCATGGACCGGTTTTCCCGGTAATCCGTATTTGGA (site ATGTAGGCTTC)
  recombinant UMI read abundance (log10): 1

## ATGTATACATGGACCGGTTTTCCCGGTAATCCGTATTTGAC (site ATATATACTGT)
  recombinant UMI read abundance (log10): 2.59

## ATGTATACATGGACCGGTTTTCCCGGTAATCCGTATTTGAC (site ATCTATACTGT)
  recombinant UMI read abundance (log10): 0.457

## ATGTATACATGGACCGGTTTTCCCGGTAATCCGTATTTGAC (site ATGTATACTGT)
  recombinant UMI read abundance (log10): 3.18

## ATGTATACATGGACCGGTTTTCCCGGTAATCCGTATTTGAC (site ATTTATACTGT)
  recombinant UMI read abundance (log10): 0.661

## ATGTCCGCATGGACCGGTTTTCCCGGTAATCCGTATTTGCC (site ATGTCCGCTGG)
  recombinant UMI read abundance (log10): 2.45

## ATGTGGGCATGGACCGGTTTTCCCGGTAATCCGTATTTGTA (site ATGTGGGCTTA)
  recombinant UMI read abundance (log10): 2.32

## ATGTTGGCATGGACCGGTTTTCCCGGTAATCCGTATTTGGC (site ATGTAGGCTGC)
  recombinant UMI read abundance (log10): 1.71

## ATGTTGGCATGGACCGGTTTTCCCGGTAATCCGTATTTGGC (site ATGTCGGCTGC)
  recombinant UMI read abundance (log10): 0.939

## ATGTTGGCATGGACCGGTTTTCCCGGTAATCCGTATTTGGC (site ATGTGGGCTGC)
  recombinant UMI read abundance (log10): 0.332

## ATGTTGGCATGGACCGGTTTTCCCGGTAATCCGTATTTGGC (site ATGTTGGCTGC)
  recombinant UMI read abundance (log10): 2.68

## ATTAAGACATGGACCGGTTTTCCCGGTAATCCGTATTTGAA (site ATTAAGACTTT)
  recombinant UMI read abundance (log10): 1.43

## ATTACGACATGGACCGGTTTTCCCGGTAATCCGTATTTGGG (site ATTACGACTCC)
  recombinant UMI read abundance (log10): 0.00852

## ATTATTACATGGACCGGTTTTCCCGGTAATCCGTATTTGCA (site ATTATTACTTG)
  recombinant UMI read abundance (log10): 1.8

## ATTCATGCATGGACCGGTTTTCCCGGTAATCCGTATTTGGT (site ATTCATGCTAC)
  recombinant UMI read abundance (log10): 0.729

## ATTCCATCATGGACCGGTTTTCCCGGTAATCCGTATTTGGA (site ATTCCATCTTC)
  recombinant UMI read abundance (log10): 0.345

## ATTCGTCCATGGACCGGTTTTCCCGGTAATCCGTATTTGGT (site ATTCGTCCTAC)
  recombinant UMI read abundance (log10): 0.0259

## ATTGACACATGGACCGGTTTTCCCGGTAATCCGTATTTGGT (site ATTGAAACTAC)
  recombinant UMI read abundance (log10): 0.168

## ATTGACACATGGACCGGTTTTCCCGGTAATCCGTATTTGGT (site ATTGACACTAC)
  recombinant UMI read abundance (log10): 0.911
